Assay results reported in patent publication US20260250318A1, “COMPOSITIONS AND METHODS FOR CROSSING THE BLOOD BRAIN BARRIER” (VOYAGER THERAPEUTICS, INC., priority 2022, published 2026).

Each sequence was assayed on brains, heart, liver, muscle, and DRG of the NHPs (assay: Maturation of TTM-001 and TTM-002 capsids, NGS enrichment in NHP tissues). Conditions: NGS fold-enrichment of RNA, NHP brain, relative to AAV9 control.
Format: in vivo
Outline: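 Variants carry mutations within and flanking the loop IV peptide insert: positions 450–466 were triplet-randomized, while positions 449–466 received low-frequency point mutations. The combined pool went into two NHPs, and each peptide was scored by NGS enrichment ratio against AAV9.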

Sequence | Fold Enrichment relative to AAV9, Brain (NHP) [fold]
KTVNGNGSPHSKAQNQHT | 78.849
KTINGHESPHKSGQNQHS | 92.248
KTTNGHDSPHKSGQTQLT | 115.637
KTINGHDSPHKSAQNYQT | 130.375
KSIKGNGSPHSKAQNQQT | 75.196
KAEMGSGSPHSKAQNQQT | 83.049
KSELGHDSPHKSGQNQQT | 107.059

Same assay, conditions: NGS fold-enrichment of matured AAV capsid variants; NHP brain, RNA; relative to AAV9 control

Sequence | Fold Enrichment relative to AAV9, Brain (NHP) [fold]
KTVNGGGSPHSKAQNHQT | 54.246

Same assay, conditions: NGS fold-enrichment, DRG of NHPs, relative to AAV9 control

Sequence | Fold Enrichment relative to AAV9, DRG (NHP) [fold]
KTVNGNGSPHSKAQNQHT | 0.000
KTINGGGSPHSKSQNQHT | 0.000
KTEDKSGSPHSKAQNQQT | 0.000
KTINGSGSPHSKAQPPAT | 0.048
KTINGSGSPHSKAQAFHT | 0.033
KTINGSGSPHSKAQAPAT | 0.000
KSIKGNGSPHSKAQNQQT | 0.000
KNINGSGSPHSKAQSQQT | 0.000
KEVHGSGSPHSKAQNQQT | 0.000
KAEMGSGSPHSKAQNQQT | 0.000
KTINGSGSPHSKAQAMHT | 0.000

Same assay, conditions: NGS fold-enrichment, NHP DRG, relative to AAV9 control

Sequence | Fold Enrichment relative to AAV9, DRG (NHP) [fold]
KTVNGNGSPHSKAQNQHT | 0.000
KTINGHESPHKSGQNQHS | 0.000
KTTNGHDSPHKSGQTQLT | 0.000
KTINGHDSPHKSAQNYQT | 0.000
KSIKGNGSPHSKAQNQQT | 0.000
KAEMGSGSPHSKAQNQQT | 0.000
KSELGHDSPHKSGQNQQT | 0.000

Same assay, conditions: NGS fold-enrichment, NHP heart, relative to AAV9 control

Sequence | Fold Enrichment relative to AAV9, Heart (NHP) [fold]
KTVNGNGSPHSKAQNQHT | 0.000
KTINGHESPHKSGQNQHS | 0.032
KTTNGHDSPHKSGQTQLT | 0.283
KTINGHDSPHKSAQNYQT | 0.124
KSIKGNGSPHSKAQNQQT | 0.000
KAEMGSGSPHSKAQNQQT | 0.020
KSELGHDSPHKSGQNQQT | 0.005

Same assay, conditions: NGS fold-enrichment, NHP liver DNA, relative to AAV9 control

Sequence | Fold Enrichment relative to AAV9, Liver DNA (NHP) [fold]
KTVNGNGSPHSKAQNQHT | 0.045
KTINGHESPHKSGQNQHS | 0.088
KTTNGHDSPHKSGQTQLT | 0.321
KTINGHDSPHKSAQNYQT | 0.123
KSIKGNGSPHSKAQNQQT | 0.000
KAEMGSGSPHSKAQNQQT | 0.112
KSELGHDSPHKSGQNQQT | 0.055

Same assay, conditions: NGS fold-enrichment, NHP liver RNA, relative to AAV9 control

Sequence | Fold Enrichment relative to AAV9, Liver RNA (NHP) [fold]
KTVNGNGSPHSKAQNQHT | 0.000
KTINGHESPHKSGQNQHS | 0.090
KTTNGHDSPHKSGQTQLT | 0.052
KTINGHDSPHKSAQNYQT | 0.097
KSIKGNGSPHSKAQNQQT | 0.000
KAEMGSGSPHSKAQNQQT | 0.768
KSELGHDSPHKSGQNQQT | 0.000

Same assay, conditions: NGS fold-enrichment, NHP muscle, relative to AAV9 control

Sequence | Fold Enrichment relative to AAV9, Muscle (NHP) [fold]
KTVNGNGSPHSKAQNQHT | 0.000
KTINGHESPHKSGQNQHS | 0.012
KTTNGHDSPHKSGQTQLT | 0.000
KTINGHDSPHKSAQNYQT | 0.000
KSIKGNGSPHSKAQNQQT | 0.000
KAEMGSGSPHSKAQNQQT | 0.000
KSELGHDSPHKSGQNQQT | 0.000

Same assay, conditions: NGS fold-enrichment, RNA, brain of NHPs, relative to AAV9 control

Sequence | Fold Enrichment relative to AAV9, Brain (NHP) [fold]
KTVNGNGSPHSKAQNQHT | 78.849
KTINGGGSPHSKSQNQHT | 67.773
KTEDKSGSPHSKAQNQQT | 68.813
KTINGSGSPHSKAQPPAT | 63.510
KTINGSGSPHSKAQAFHT | 70.159
KTINGSGSPHSKAQAPAT | 61.934
KSIKGNGSPHSKAQNQQT | 75.196
KNINGSGSPHSKAQSQQT | 73.757
KEVHGSGSPHSKAQNQQT | 67.901
KAEMGSGSPHSKAQNQQT | 83.049
KTINGSGSPHSKAQAMHT | 62.756

Same assay, conditions: NGS fold-enrichment, heart of NHPs, relative to AAV9 control

Sequence | Fold Enrichment relative to AAV9, Heart (NHP) [fold]
KTVNGNGSPHSKAQNQHT | 0.000
KTINGGGSPHSKSQNQHT | 0.057
KTEDKSGSPHSKAQNQQT | 0.000
KTINGSGSPHSKAQPPAT | 0.030
KTINGSGSPHSKAQAFHT | 0.000
KTINGSGSPHSKAQAPAT | 0.169
KSIKGNGSPHSKAQNQQT | 0.000
KNINGSGSPHSKAQSQQT | 0.000
KEVHGSGSPHSKAQNQQT | 0.000
KAEMGSGSPHSKAQNQQT | 0.020
KTINGSGSPHSKAQAMHT | 0.000

Same assay, conditions: NGS fold-enrichment, liver DNA of NHPs, relative to AAV9 control

Sequence | Fold Enrichment relative to AAV9, Liver DNA (NHP) [fold]
KTVNGNGSPHSKAQNQHT | 0.045
KTINGGGSPHSKSQNQHT | 0.220
KTEDKSGSPHSKAQNQQT | 0.000
KTINGSGSPHSKAQPPAT | 0.302
KTINGSGSPHSKAQAFHT | 0.119
KTINGSGSPHSKAQAPAT | 0.197
KSIKGNGSPHSKAQNQQT | 0.000
KNINGSGSPHSKAQSQQT | 0.041
KEVHGSGSPHSKAQNQQT | 0.000
KAEMGSGSPHSKAQNQQT | 0.112
KTINGSGSPHSKAQAMHT | 0.393

Same assay, conditions: NGS fold-enrichment, liver RNA of NHPs, relative to AAV9 control

Sequence | Fold Enrichment relative to AAV9, Liver RNA (NHP) [fold]
KTVNGNGSPHSKAQNQHT | 0.000
KTINGGGSPHSKSQNQHT | 0.000
KTEDKSGSPHSKAQNQQT | 0.000
KTINGSGSPHSKAQPPAT | 0.126
KTINGSGSPHSKAQAFHT | 0.762
KTINGSGSPHSKAQAPAT | 0.696
KSIKGNGSPHSKAQNQQT | 0.000
KNINGSGSPHSKAQSQQT | 0.000
KEVHGSGSPHSKAQNQQT | 0.727
KAEMGSGSPHSKAQNQQT | 0.768
KTINGSGSPHSKAQAMHT | 0.976

Same assay, conditions: NGS fold-enrichment, muscle of NHPs, relative to AAV9 control

Sequence | Fold Enrichment relative to AAV9, Muscle (NHP) [fold]
KTVNGNGSPHSKAQNQHT | 0.000
KTINGGGSPHSKSQNQHT | 0.000
KTEDKSGSPHSKAQNQQT | 0.000
KTINGSGSPHSKAQPPAT | 0.031
KTINGSGSPHSKAQAFHT | 0.058
KTINGSGSPHSKAQAPAT | 0.015
KSIKGNGSPHSKAQNQQT | 0.000
KNINGSGSPHSKAQSQQT | 0.000
KEVHGSGSPHSKAQNQQT | 0.000
KAEMGSGSPHSKAQNQQT | 0.000
KTINGSGSPHSKAQAMHT | 0.010

Same assay, conditions: NHP DRG; relative to AAV9 control

Sequence | Fold Enrichment relative to AAV9, DRG (NHP) [fold]
KTVNGGGSPHSKAQNHQT | 0.375

Same assay, conditions: NHP heart; relative to AAV9 control

Sequence | Fold Enrichment relative to AAV9, Heart (NHP) [fold]
KTVNGGGSPHSKAQNHQT | 0.024

Same assay, conditions: NHP liver, DNA; relative to AAV9 control

Sequence | Fold Enrichment relative to AAV9, Liver DNA (NHP) [fold]
KTVNGGGSPHSKAQNHQT | 0.146

Same assay, conditions: NHP liver, RNA; relative to AAV9 control

Sequence | Fold Enrichment relative to AAV9, Liver RNA (NHP) [fold]
KTVNGGGSPHSKAQNHQT | 0.000

Same assay, conditions: NHP muscle; relative to AAV9 control

Sequence | Fold Enrichment relative to AAV9, Muscle (NHP) [fold]
KTVNGGGSPHSKAQNHQT | 0.000

These sequences were tested on brain (assay: Matured TTM-001 and TTM-002 variants, NGS enrichment in mouse brain). Conditions: NGS fold-enrichment, brain of mice, relative to AAV9 control.
Format: in vivo, mice

Sequence | Fold Enrichment relative to AAV9, Brain (Mouse) [fold]
KTVNGNGSPHSKAQNQHT | 54.086
KTINGGGSPHSKSQNQHT | 100.748
KTEDKSGSPHSKAQNQQT | 70.071
KTINGSGSPHSKAQPPAT | 117.453
KTINGSGSPHSKAQAFHT | 86.268
KTINGSGSPHSKAQAPAT | 127.420
KSIKGNGSPHSKAQNQQT | 90.251
KNINGSGSPHSKAQSQQT | 57.432
KEVHGSGSPHSKAQNQQT | 100.111
KAEMGSGSPHSKAQNQQT | 135.019
KTINGSGSPHSKAQAMHT | 84.056

Same assay, conditions: NGS fold-enrichment, mouse brain, relative to AAV9 control

Sequence | Fold Enrichment relative to AAV9, Brain (Mouse) [fold]
KTVNGNGSPHSKAQNQHT | 54.086
KTINGHESPHKSGQNQHS | 9.720
KTTNGHDSPHKSGQTQLT | 17.885
KTINGHDSPHKSAQNYQT | 19.443
KSIKGNGSPHSKAQNQQT | 90.251
KAEMGSGSPHSKAQNQQT | 135.019
KSELGHDSPHKSGQNQQT | 13.285

Same assay, conditions: mouse brain; relative to AAV9 control

Sequence | Fold Enrichment relative to AAV9, Brain (Mouse) [fold]
KTVNGGGSPHSKAQNHQT | 67.188
